Measurements reported in US20240099989A1, “AGENT FOR PREVENTING OR IMPROVING PERIPHERAL NEUROPATHY” (KINKI UNIVERSITY, priority 2021, published 2024).
Read-outs that look alike come from different tables or passages of the source.

System: Peripheral Neuropathy in a Mouse Caused by Paclitaxel
Format: in vivo, Balb/c mice
Source text: (§1) Six to seven-week-old female Balb/c mice were used for the tests as with Example 1. All the mice were acclimated for seven days after arrival. Then, the mice were grouped into the following four groups: a control group, a group receiving paclitaxel, a group receiving xylitol, and a group receiving paclitaxel and xylitol (a group receiving paclitaxel+xylitol). Each group consisted of five mice.
On Day 8 of acclimation, the mice in the group receiving paclitaxel and the group receiving paclitaxel+xylitol were intraperitoneally administered with paclitaxel at a dose of 6 mg/kg. This day was designated as the first day of the administration (Day 0). Thereafter, these mice were intraperitoneally administered with paclitaxel at the same dose on Day 7 and Day 14 for a total of 3 doses.
The mice in the group receiving 100 mg/kg xylitol were orally administered with xylitol at a dose of 100 mg/kg daily from Day 0. The mice in the group receiving paclitaxel+100 mg/kg xylitol were orally administered with xylitol at a dose of 100 mg/kg daily from Day 6 of administration.
A test was performed on the mice in the four groups described in (6) of the present example (Example 2) to examine the effect of xylitol on paresthesia that is caused by a low temperature stimulus. The mice in respective groups were placed on a cold plate set at 10° C., and withdrawal response time (latent time) was measured. It is presumed that a shorter latent time reflects a greater degree of shunning the low temperature stimulus by the cold plate. […]
The mice in the group receiving 100 mg/kg D-threitol were orally administered with D-threitol at a dose of 100 mg/kg daily from Day 0. The mice in the group receiving paclitaxel+100 mg/kg D-threitol were orally administered with D-threitol at a dose of 100 mg/kg daily from Day 6 of administration.
A test was performed on the mice in the four groups described in (4) of the present example (Example 4) to examine the effect of D-threitol on paresthesia that is caused by a low temperature stimulus. The mice in respective groups were placed on a cold plate set at 10° C., and withdrawal response time (latent time) was measured. It is presumed that a shorter latent time reflects a greater degree of shunning the low temperature stimulus by the cold plate.
as §1, with “L-talitol,” for “xylitol,”, “L-talitol” for “xylitol”, “paclitaxel+L-talitol).” for “paclitaxel+xylitol).”
On Day 8 of acclimation, the mice in the group receiving paclitaxel and the group receiving paclitaxel+L-talitol were intraperitoneally administered with paclitaxel at a dose of 6 mg/kg. This day was designated as Day 0 of administration. Thereafter, these mice were intraperitoneally administered with paclitaxel at a daily dose of 6 mg/kg on Day 7 and Day 14.
The mice in the group receiving L-talitol and the group receiving paclitaxel+L-talitol were orally administered with L-talitol at a dose of 5 mg/kg daily from Day 0.
A cold plate test was performed to examine the effect of L-talitol on paresthesia that is caused by a low temperature stimulus. The mice in the four groups described in (4) of the present example (Example 5) were placed on a cold plate set at 10° C., and withdrawal response time (latent time) was measured. It is presumed that a shorter latent time reflects a greater degree of shunning the low temperature stimulus by the cold plate.
On Day 8 of acclimation, the mice in the group receiving paclitaxel and the group receiving paclitaxel+L-talitol were intraperitoneally administered with paclitaxel at a dose of 6 mg/kg. This day was designated as the first day of the administration (Day 0). […]

[1] = 6 mg/kg paclitaxel + 5 mg/kg test substance orally daily from Day 0 (prevention)
[2] = 6 mg/kg paclitaxel + 100 mg/kg orally daily from Day 6, on Day 12, vs group receiving 6 mg/kg paclitaxel

| SMILES | withdrawal response time (latent time) [1] | withdrawal response time (latent time) [2] |
| --- | --- | --- |
| OC[C@@H](O)[C@H](O)CO [D-threitol] | approximately similar to that of the control group | significantly longer withdrawal response time |
| OC[C@H](O)[C@H](O)[C@H](O)[C@@H](O)CO [L-talitol] | approximately similar to that of the control group | significantly longer withdrawal response time |
| OC[C@@H](O)[C@H](O)[C@@H](O)CO [xylitol] | approximately similar to that of the control group | significantly longer withdrawal response time |
